Results from PMC9785006, “The Study of Hypoglycemic Activity of 7-Terpenylcoumarins” (Molecules, 2022).

How the values were obtained:
DPP IV [1] = target: T1, DPP IV (Homo sapiens, UniProt P27487); assay: fluorometric DPP (IV) inhibitor screening kit (Cayman), Gly-Pro-AMC substrate; at […] the effect was only a tendency ([…] < p < […]); format: biochemical
T1 construct: gene DPP4

DPP IV [2] = target: T1, DPP IV; assay: fluorometric DPP (IV) inhibitor screening kit (Cayman), Gly-Pro-AMC substrate; format: biochemical

T1 sequence (P27487 39-766): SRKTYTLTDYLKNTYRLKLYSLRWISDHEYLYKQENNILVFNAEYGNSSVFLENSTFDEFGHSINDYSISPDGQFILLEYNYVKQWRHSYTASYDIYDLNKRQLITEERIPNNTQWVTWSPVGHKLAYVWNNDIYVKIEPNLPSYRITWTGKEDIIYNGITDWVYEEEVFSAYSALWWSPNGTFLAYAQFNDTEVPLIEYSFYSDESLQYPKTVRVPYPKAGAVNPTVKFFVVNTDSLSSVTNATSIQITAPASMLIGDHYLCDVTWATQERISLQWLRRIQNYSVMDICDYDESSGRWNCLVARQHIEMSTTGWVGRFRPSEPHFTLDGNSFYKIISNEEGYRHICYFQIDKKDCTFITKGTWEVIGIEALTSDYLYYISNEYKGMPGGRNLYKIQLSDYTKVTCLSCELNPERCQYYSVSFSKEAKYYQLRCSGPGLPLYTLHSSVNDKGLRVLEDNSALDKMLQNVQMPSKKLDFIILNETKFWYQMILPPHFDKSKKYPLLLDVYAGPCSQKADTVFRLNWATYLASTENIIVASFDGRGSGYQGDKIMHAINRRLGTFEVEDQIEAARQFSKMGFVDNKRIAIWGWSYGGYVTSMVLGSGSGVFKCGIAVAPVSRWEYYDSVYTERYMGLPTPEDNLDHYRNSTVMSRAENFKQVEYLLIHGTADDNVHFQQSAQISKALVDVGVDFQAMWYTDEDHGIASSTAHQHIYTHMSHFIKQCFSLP

Compound | IC50 (DPP IV [1]) [µM] | IC50 (DPP IV [2]) [µM]
CC1(C)[C@H]2CC=C(COc3ccc4c5c(c(=O)oc4c3)CCC5)[C@@H]1C2 [7b, 7-(((1R,5S)-6,6-Dimethylbicyclo [3.1.1]hept-2-en-2-yl)methoxy)-2,3-dihydrocyclopenta[c]chromen-4(1H)-one] | 115 | 
CC(C)=CCC/C(C)=C/COc1ccc2c(-c3ccccc3)cc(=O)oc2c1 [9a, (E)-7-(3,7-Dimethylocta-2,6-dienyloxy)-4-phenyl-2H-chromen-2-one] |  | 128
